{"source": "patent US20050009903A1", "about": "“CB2-selective cannabinoid analogues” (priority 2003, published 2005)", "key": {"mouse vas deferens": {"system": "mouse vas deferens", "settings": "cited from earlier work"}, "glioma tumors": {"system": "glioma tumors", "settings": "cited from earlier work"}, "CB2 receptor [1]": {"biological_target": "T1, CB2 receptor (Homo sapiens, UniProt P34972)", "T1 sequence (P34972 whole entry)": "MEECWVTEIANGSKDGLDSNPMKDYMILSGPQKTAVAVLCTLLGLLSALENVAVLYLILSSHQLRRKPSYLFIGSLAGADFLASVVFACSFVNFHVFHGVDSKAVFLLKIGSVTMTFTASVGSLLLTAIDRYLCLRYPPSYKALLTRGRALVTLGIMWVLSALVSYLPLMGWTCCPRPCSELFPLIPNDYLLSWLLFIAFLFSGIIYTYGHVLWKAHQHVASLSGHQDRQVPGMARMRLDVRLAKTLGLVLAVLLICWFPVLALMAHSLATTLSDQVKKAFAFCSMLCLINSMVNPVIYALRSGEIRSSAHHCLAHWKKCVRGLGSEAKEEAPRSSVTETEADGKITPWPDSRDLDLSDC", "parameters": "expressed in transfected cells", "settings": "previously reported by the applicants (literature refs); listed as JWH-133; read-out: Ki at CB2 receptor; cited from earlier work"}, "CB1 receptor [2]": {"biological_target": "T2, CB1 receptor (Rattus norvegicus, UniProt P20272)", "T2 construct": "from tissue; host or cells: rat whole brain, P2 membranes", "T2 sequence (P20272 whole entry)": "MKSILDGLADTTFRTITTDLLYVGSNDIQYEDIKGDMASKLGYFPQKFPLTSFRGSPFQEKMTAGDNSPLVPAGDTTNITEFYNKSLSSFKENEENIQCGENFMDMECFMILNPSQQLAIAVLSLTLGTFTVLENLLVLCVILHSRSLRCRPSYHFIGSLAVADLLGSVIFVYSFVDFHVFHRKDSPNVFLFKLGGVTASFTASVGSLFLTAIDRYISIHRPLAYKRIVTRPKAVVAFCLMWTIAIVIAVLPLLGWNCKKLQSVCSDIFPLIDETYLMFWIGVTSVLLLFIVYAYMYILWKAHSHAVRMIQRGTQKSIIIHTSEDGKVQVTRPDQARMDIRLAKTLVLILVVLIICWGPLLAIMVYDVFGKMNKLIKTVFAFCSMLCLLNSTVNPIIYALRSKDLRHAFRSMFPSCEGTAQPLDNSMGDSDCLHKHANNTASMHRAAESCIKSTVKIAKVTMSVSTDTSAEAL", "settings": "previously reported by the applicants (literature refs); read-out: Ki at CB1 receptor; cited from earlier work"}, "CB2 receptor [3]": {"biological_target": "T1, CB2 receptor", "assay": "CB2 assay: displacement of [3H]CP-55,940 from cloned human CB2 receptor preparation (transfected HEK 293 cells)", "type": "binding", "parameters": "expressed in transfected cells", "settings": "Table 1; ratio of Ki values"}, "CB2 receptor [4]": {"biological_target": "T1, CB2 receptor", "assay": "[35S]GTPγS binding in human CB2 receptor-expressing CHO cell membranes", "type": "biochemical", "parameters": "expressed in transfected cells"}, "[5]": {"system": "mouse model of multiple sclerosis", "settings": "cited from earlier work"}, "[6]": {"settings": "blocked by CB2 antagonist SR-144528; cited from earlier work"}, "[7]": {"settings": "blocked by CB2 antagonist SR-144528; cited from earlier work", "remark": "listed apart in the source"}, "CB1 receptor [8]": {"biological_target": "CB1 receptor (Homo sapiens, UniProt P21554)", "sequence (P21554 whole entry)": "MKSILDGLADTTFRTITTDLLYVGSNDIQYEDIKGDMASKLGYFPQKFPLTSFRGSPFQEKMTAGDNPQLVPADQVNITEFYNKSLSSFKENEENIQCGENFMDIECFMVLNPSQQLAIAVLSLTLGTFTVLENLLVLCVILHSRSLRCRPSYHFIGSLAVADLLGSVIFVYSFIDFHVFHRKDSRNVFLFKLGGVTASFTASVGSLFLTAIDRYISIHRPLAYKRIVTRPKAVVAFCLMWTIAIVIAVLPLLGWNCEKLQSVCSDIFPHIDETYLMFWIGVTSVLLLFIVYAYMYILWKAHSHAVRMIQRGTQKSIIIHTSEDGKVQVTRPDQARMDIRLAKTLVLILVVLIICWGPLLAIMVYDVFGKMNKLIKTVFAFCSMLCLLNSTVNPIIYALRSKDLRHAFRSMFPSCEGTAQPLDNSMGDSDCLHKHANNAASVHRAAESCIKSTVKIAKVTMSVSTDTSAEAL", "settings": "read-out: Ki CB1 receptor; Hanus et al.; cited from earlier work"}, "mouse behavioral tetrad": {"system": "mouse behavioral tetrad", "settings": "cited from earlier work"}}, "data": [{"smiles": "COc1ccc(C(=O)c2c(C)n(CCN3CCOCC3)c3ccccc23)cc1", "note": "[pravadoline]", "values": [{"measurement": "contractions of electrically stimulated mouse vas deferens", "setting": "mouse vas deferens", "result": "inhibited contractions"}]}, {"smiles": "CCCC(C)(C)c1ccc2c(c1)OC(C)(C)C1CC=C(C)CC21", "note": "(centres unmarked) [Compound 3, 3-(1′,1′-Dimethylbutyl)-1-deoxy-Δ^8-THC, reference compound]", "values": [{"measurement": "in vivo growth of glioma tumors", "setting": "glioma tumors", "result": "inhibits the in vivo growth of glioma tumors"}, {"measurement": "Ki", "setting": "CB2 receptor [1]", "result": "3.4 ± 1", "unit": "nM"}, {"measurement": "Ki", "setting": "CB1 receptor [2]", "result": "677 ± 132", "unit": "nM"}, {"measurement": "Ratio CB1/CB2", "setting": "CB2 receptor [3]", "result": 199}, {"measurement": "Emax relative to CP-55,940", "setting": "CB2 receptor [4]", "result": "111.5±13.6", "unit": "%"}, {"measurement": "Emax (% CP-55940)", "setting": "CB2 receptor [4]; Table 4, mean ± SEM, per cent relative to 3 μM CP-55,940", "result": "111.5 ± 13.6", "unit": "% CP-55940"}, {"measurement": "efficacy in the [35S]GTPγS assay relative to CP-55,940", "setting": "CB2 receptor [4]; in words", "result": "highly efficacious"}, {"measurement": "EC50", "setting": "CB2 receptor [4]; read-out: EC50 in the [35S]GTPγS assay", "result": "4 ± 1", "unit": "nM"}, {"measurement": "reduction of spasticity", "setting": "[5]", "result": "effective in reducing spasticity"}]}, {"smiles": "CCCCCCC(C)(C)c1cc(OC)c([C@@H]2C=C(CO)[C@@H]3C[C@H]2C3(C)C)c(OC)c1", "note": "[HU-308]", "values": [{"measurement": "peripheral analgesic activity", "setting": "[6]", "result": "shows peripheral analgesic activity"}, {"measurement": "effect on blood pressure", "setting": "[7]", "result": "reduces blood pressure"}, {"measurement": "Ki", "setting": "CB1 receptor [8]", "result": "> 10000", "unit": "nM"}, {"measurement": "activity in the mouse behavioral tetrad", "setting": "mouse behavioral tetrad", "result": "inactive"}]}]}
